Reference: US7939052B2, “Method of measuring the biological activity of an urotensin II receptor” (priority 2005, dated 2011)
“Also recorded” adds a separate entry of the source. Residues, ends and D or L forms follow the SMILES beside them.

Columns and labels:
[1] = rat, nicotinic acid administration; cited from earlier work
[2] = target: T1, urotensin II receptor (Rattus norvegicus, UniProt P49684); assay: Increase in the redness or skin temperature of the rat ear after administration of the substance; assay type: in vivo
T1 construct: from tissue; host or cells: whole animal: male Sprague-Dawley rats (Charles River), in vivo
T1 sequence (P49684 1-386): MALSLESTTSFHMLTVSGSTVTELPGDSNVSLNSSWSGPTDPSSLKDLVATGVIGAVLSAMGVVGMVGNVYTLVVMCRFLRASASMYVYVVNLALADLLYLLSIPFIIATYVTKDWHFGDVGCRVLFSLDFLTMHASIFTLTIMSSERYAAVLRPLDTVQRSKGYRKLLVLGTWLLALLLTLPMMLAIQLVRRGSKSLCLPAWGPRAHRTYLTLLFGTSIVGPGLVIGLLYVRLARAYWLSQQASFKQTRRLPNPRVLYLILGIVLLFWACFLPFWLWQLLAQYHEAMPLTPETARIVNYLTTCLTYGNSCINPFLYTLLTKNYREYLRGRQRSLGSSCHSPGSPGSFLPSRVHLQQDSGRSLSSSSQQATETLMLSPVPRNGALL
Procedure: (§1) The examples described herein used conscious rat as the testing animal, although similar results were also observed from anesthetized rats. Other animals can also be utilized following similar procedures. All procedures involving animals were conducted in an animal facility fully accredited by the American Association for Assessment and Accreditation of Laboratory Animal Care (AAALAC) and in accordance with The Guide for the Care and Use of Laboratory Animals (NIH). Protocols were approved by the Internal Animal Care and Use Committee (IACUC). Results are expressed as mean±s.e. mean. Comparisons between groups were assessed using two-sided Student's t-test. P<0.05 was considered significant.
(§2) Unless otherwise indicated, Rat U-II was obtained from SIGMA (U-7507, St Louis, Mo.). Urantide was purchased from Peptide International (PUT-3639-P1, Louisville, Ky.). Experiments were performed with male, Sprague-Dawley rats (Charles River, Wilmington, Mass.), weighing 250-350 g.
(§3) Rats were acclimated at 18° C. for at least 1 hour before U-II administration. The room temperature was kept at 18° C. throughout ear surface temperature measurements. Rat U-II suspended in sterile saline (0.1 ml) at various concentrations was administered to a conscious rat via unilateral […] (i.p.) injection over a period of 5 second. In the serial dose experiment, serial doses of U-II were administered to a conscious rat via subcutaneous (s.c.) routes. The lateral inner ear surface temperature of the rat was measured using a Raytek High Performance Infra-red Thermometer (Raytek Corp., Santa Cruz, Calif.) at different time points.
(§4) Urantide (PUT-3639-P1, Peptide International) was administered or co-administered with U-II (3 μg/kg) to a rat via subcutaneous administration. The lateral inner ear surface temperature of the rat was measured using a Raytek High Performance Infra-red Thermometer at different time points, wherein the time point of Urantide administration or Urantide and U-II co-administration was marked as 0 minute.
(§5) The nitric oxide syntheses inhibitor, N^g nitro-L-arginine methylester (L-NAME), or prostacyclin inhibitor, indomethacin, was administered to the rat alone or in combination with U-II. L-NAME (N5751, Sigma, 100 mg/kg) suspended in saline was administered to a rat via […] (i.p.) administration 4 hour prior to injecting the rat with the U-II. Indomethacin (17378, Sigma, 30 mg/kg) suspended in carboxymethylcellulose was administered to a rat via p.o. (per os, L—by mouth or orally) 2 hours prior to injecting the rat with the U-II. […] The lateral inner ear surface temperature of the rat was measured using a Raytek High Performance Infra-red Thermometer at different time points, wherein the time point of U-II injection was marked as 0 minutes.

[3] = system: urotensin II receptor; assay: Inhibition of U-II induced increase in the redness or skin temperature of the rat ear; assay type: in vivo
Procedure: as §4
(§6) The nitric oxide syntheses inhibitor, N^g nitro-L-arginine methylester (L-NAME), or prostacyclin inhibitor, indomethacin, was administered to the rat alone or in combination with U-II. L-NAME (N5751, Sigma, 100 mg/kg) suspended in saline was administered to a rat via […] (i.p.) administration 4 hour prior to injecting the rat with the U-II. Indomethacin (17378, Sigma, 30 mg/kg) suspended in carboxymethylcellulose was administered to a rat via p.o. (per os, L—by mouth or orally) 2 hours prior to injecting the rat with the U-II. Dexamethasone (D1756, Sigma, 8 mg/kg) suspended in saline was administered to a rat via i.p. 2 hours prior to injecting the rat with the U-II. After taking a pre-dose or baseline ear surface temperature, 0.1 ml of U-II at various concentrations formulated in sterile normal saline was injection subcutaneously to the mid-scapular region of the rat. The lateral inner ear surface temperature of the rat was measured using a Raytek High Performance Infra-red Thermometer at different time points, wherein the time point of U-II injection was marked as 0 minutes.

[4] = system: urotensin II receptor; assay: Increase in the redness or skin temperature of the rat ear after administration of the substance; assay type: in vivo; details: data not shown
Procedure: as §1, §2, §3, §4, §5

[5] = target: T1, urotensin II receptor; assay: Inhibition of U-II induced increase in the redness or skin temperature of the rat ear; assay type: in vivo; details: 150 μg/kg co-administered s.c. with U-II 3 μg/kg
Procedure: as §4, §6

[6] = target: T2, UT receptor (Rattus norvegicus, UniProt P49684); details: competitive UT receptor antagonist, rat aorta; cited from earlier work
T2 construct: pure UT receptor antagonist in rat aorta vasoconstriction assays; host or cells: rat aorta tissue
T2 sequence (P49684 1-386): T1 sequence (P49684 1-386)

[7] = system: panel of receptor/ion channels; assay: Binding to a panel of receptor/ion channels; details: data not shown
[8] = target: T3, human UT receptor (Homo sapiens, UniProt Q9UKP6); details: CHO cells over-expressing the human UT receptor; cited from earlier work
T3 construct: host or cells: CHO cells over-expressing the human UT receptor
T3 sequence (Q9UKP6 1-389): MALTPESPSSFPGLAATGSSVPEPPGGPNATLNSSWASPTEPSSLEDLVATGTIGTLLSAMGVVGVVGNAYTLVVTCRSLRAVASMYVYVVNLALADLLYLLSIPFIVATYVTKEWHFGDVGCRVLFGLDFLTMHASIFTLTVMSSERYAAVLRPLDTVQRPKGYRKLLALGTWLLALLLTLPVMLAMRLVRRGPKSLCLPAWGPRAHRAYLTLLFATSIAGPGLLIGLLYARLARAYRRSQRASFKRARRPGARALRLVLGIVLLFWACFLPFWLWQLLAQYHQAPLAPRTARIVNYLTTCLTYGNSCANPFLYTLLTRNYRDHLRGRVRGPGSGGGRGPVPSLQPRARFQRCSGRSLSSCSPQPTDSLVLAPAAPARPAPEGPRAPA

O=C(O)c1cccnc1 [nicotinic acid]
increase of the ear temperature [1]: less than 1.5 °C

URP: U-II-related peptide, SEQ ID NO: 10, ACFWKYCV, intramolecular disulfide bond (PUT-4408-V, Peptide International)
redness or skin temperature of the rat after administration ([2]; URP 100 μg/kg s.c.): induced an increase in skin temperature; also recorded: induced an increase in the redness or skin temperature

COC(=O)[C@@H](N)CCCNC(=N)N[N+](=O)[O-] [L-NAME, N^g nitro-L-arginine methylester]
effect on U-II induced ear flush or increase of ear temperature ([3]; 100 mg/kg i.p. 4 hour prior to U-II 3 μg/kg s.c., 100 mg/kg): blocked; also recorded: markedly inhibited
ear flush or ear surface temperature change, substance alone ([4]; 100 mg/kg i.p.): caused no ear flush or ear surface temperature change

CC(C)[C@H](NC(=O)[C@@H]1CSSC(C)(C)[C@H](NC(=O)[C@@H](N)CC(=O)O)C(=O)N[C@@H](Cc2ccccc2)C(=O)N[C@H](Cc2c[nH]c3ccccc23)C(=O)N[C@@H](CCCN)C(=O)N[C@@H](Cc2ccc(O)cc2)C(=O)N1)C(=O)O [urantide] (HELM PEPTIDE1{D.[Pen].F.[dW].[Orn].Y.C.V}$PEPTIDE1,PEPTIDE1,2:R3-7:R3$$$V2.0)
effect on U-II induced ear flush or increase of ear temperature [5]: blocked
pA2 [6]: 8.3
ear flush or ear surface temperature change, substance alone ([2]; 150 μg/kg s.c.): caused no ear flush or ear surface temperature changes
binding activity to proteins within a panel of receptor/ion channels [7]: minimal binding activity
activity at human UT receptor [8]: potent U-II agonist

COc1ccc2c(c1)c(CC(=O)O)c(C)n2C(=O)c1ccc(Cl)cc1 [indomethacin]
effect on U-II induced ear flush or increase of ear temperature ([3]; 30 mg/kg p.o. 2 hours prior to U-II 3 μg/kg s.c., 30 mg/kg): blocked
effect on U-II induced ear flush or increase of ear temperature ([3]; 30 mg/kg p.o. 2 hours prior to U-II 3 μg/kg s.c., listed as Indomethacin, 30 mg/kg): abolished
ear flush or ear surface temperature change, substance alone ([4]; 30 mg/kg p.o.): caused no ear flush or ear surface temperature change
